Source: patent US7335686B2, “Method and composition for treating osteoporosis” (Council of Scientific and Industrial Research, priority 2003, dated 2008)

System: osteoclast precursors (murine bone marrow cells)
Assay: In vitro osteoclastogenesis assay (M-CSF + RANKL, TRAP staining)
Type: cell-based, Balb/c mice
Conditions: M-CSF and RANKL, TRAP-positive osteoclasts
Description: Mice were sacrificed by cervical dislocation and femora and tibiae were aseptically removed and dissected free of adherent soft tissues. The bone ends were cut, and the marrow cavity was flushed out with medium MEM from one end of the bone using a sterile 21-gauge needle. The bone marrow suspension was carefully agitated with a plastic Pasteur pipette to obtain a single-cell suspension. The cells were washed twice and resuspended (10^6 cells/ml) in αMEM containing 10% FBS. […] After 24 h, nonadherent cells were harvested and layered on a Ficoll-Hypaque gradient. Cells at the gradient interface were collected, washed and resuspended (5×10^5/ml) in αMEM containing 10% FBS. In this study, we called these stromal cell-free, M-CSF-dependent, nonadherent cells as osteoclast precursors. These osteoclast precursors were added to 96-well plates (100 μl/well) containing plastic coverslips. […] Cultures were fed every 2-3 days and after incubation for 6 days osteoclast formation was evaluated by tartrate-resistant acid phosphatase (TRAP) staining. The number of TRAP-positive multinucleated cells (MNCs) containing 3 or more nuclei was scored.
TRAP is preferentially expressed at high levels in osteoclast and is considered, especially in the mouse, to be an osteoclast marker. […] Only those cells that were strongly TRAP-positive (dark red) counted by light microscopy.

Structure (SMILES)	Effect on RANKL-induced osteoclast formation/differentiation (in words)
O=C(O)C[C@H](NS(=O)(=O)O)C(=O)O [example 3, L-aspartyl, N-sulfonic acid]	significantly inhibited osteoclast formation
O=C([O-])CC[C@H](NS(=O)(=O)[O-])C(=O)[O-].O=C([O-])CC[C@H](NS(=O)(=O)[O-])C(=O)[O-].[Ca+2].[Ca+2].[Ca+2] [compound 1, L-glutamyl-N-sulphonic acid, Ca salt]	dose dependent inhibition
